Assay results reported in a compilation of properties of binary mixtures (doi:10.1016/j.jct.2008.09.001).

Test: xn = mol fraction of the nth substance listed
Conditions: 101.3 kPa

CCCCCCCC[n+]1ccccc1.F[B-](F)(F)F + O
viscosity [mPa·s]
Conditions | x2 = 0 | x2 = 0.1 | x2 = 0.184 | x2 = 0.324 | x2 = 0.477 | x2 = 0.562 | x2 = 0.67 | x2 = 0.758 | x2 = 0.783
283.15 K | 640 | 404 | 261 | 161.4 | 116.4 | 63.8 | 65.55 | 51.8 | 54.27
288.15 K | – | – | – | – | – | 49.84 | – | – | 38.63
293.15 K | 320 | – | – | – | 69.9 | 39.6 | 40.42 | 28.74 | 29.21
298.15 K | 234 | 159.1 | 112.3 | 72 | 55.07 | 31.77 | – | – | 22.73
303.15 K | 171.9 | 122.5 | 86 | 57.88 | 44.37 | 26.47 | 26.82 | 19.17 | 18.09
308.15 K | – | 96.2 | 68.3 | 47.09 | 36.11 | – | 22.27 | 15.97 | –
313.15 K | 105.7 | 71.5 | 54.93 | 38.75 | 30.19 | – | – | 13.56 | 12.78
318.15 K | – | 57.41 | 44.98 | – | 25.23 | 16.88 | 15.98 | 11.52 | 11.08
323.15 K | 64.89 | 46.73 | 37.06 | – | 21.39 | – | 13.65 | 9.95 | 9.39
328.15 K | 53.52 | – | – | 23.23 | 18.15 | 12.05 | 11.88 | – | 8.2
333.15 K | – | – | – | 19.92 | 15.84 | 10.61 | 10.38 | – | 7.17
338.15 K | 38.1 | 27.06 | 22.38 | 17.32 | 13.44 | – | – | 6.75 | 6.31
343.15 K | 32.38 | 23.06 | 19.25 | – | 11.58 | 8.15 | – | 5.99 | 5.58
348.15 K | – | 19.83 | 16.71 | 13.13 | – | 7.17 | 7.19 | 5.29 | 4.97
353.15 K | 24.05 | – | – | – | – | – | – | – | –

CCCC[n+]1ccccc1.F[B-](F)(F)F + O
viscosity [mPa·s]
Conditions | x2 = 0 | x2 = 0.11 | x2 = 0.263 | x2 = 0.391 | x2 = 0.414 | x2 = 0.549 | x2 = 0.637 | x2 = 0.724 | x2 = 0.856
283.15 K | 464 | 211 | – | 44.9 | 41.27 | 22.77 | – | – | 5.53
288.15 K | 313 | – | 60.2 | – | 32.98 | 18.49 | – | – | 4.58
293.15 K | 223 | 115.6 | 47.4 | 29.05 | 26.81 | 15.37 | 10.82 | 7.61 | 3.88
298.15 K | 163.3 | 88.1 | 38.1 | 23.97 | 22.21 | 12.99 | 9.16 | – | 3.36
303.15 K | 123 | – | 31.12 | 20.01 | 18.63 | – | 8 | 5.65 | 2.94
308.15 K | 94.2 | 53.4 | 25.87 | 16.93 | 15.81 | 9.61 | 7.01 | 4.92 | 2.6
313.15 K | 70.3 | 43.2 | 21.69 | 14.51 | 13.58 | – | 6.13 | – | 2.32
318.15 K | 55.8 | 35.5 | 18.48 | 12.53 | 11.77 | 7.41 | 5.43 | 3.85 | 2.09
323.15 K | 45.1 | 29.49 | 15.87 | 10.93 | 10.22 | 6.57 | 4.78 | 3.46 | 1.9
328.15 K | 37.1 | – | 13.77 | 9.58 | 9.06 | 5.86 | 4.29 | – | 1.74
333.15 K | 30.9 | 21.18 | 12.04 | 8.6 | – | 5.19 | 3.87 | 2.82 | 1.61
338.15 K | 26.01 | 18.21 | 10.57 | 7.71 | 7.17 | 4.68 | – | 2.58 | 1.5
343.15 K | 22.17 | – | – | – | 6.37 | 4.24 | 3.22 | 2.37 | 1.4
353.15 K | 15.84 | – | – | – | – | – | – | – | –
